Patent US20230293526A1, “METHOD FOR TREATING CANCER WITH A REVERSE TRANSCRIPTASE INHIBITOR” (PrimeFour Therapeutics, Inc., priority 2020, published 2023)

Legend:
[1] = test system: human LINE-1; experiment: Human LINE-1 (L1) retrotransposition dual-luciferase reporter assay in HeLa cells; assay type: cell-based; conditions: Homo sapiens, HeLa, 72 h, read-out: Human LINE-1 IC50 (Human L1 activity inhibition)
Procedure, shortened: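 HeLa cells transfected with dual-luciferase L1 plasmid pYX017 (100 ng/well), dosed immediately after with serially diluted compounds (0.2% DMSO final) in triplicate and incubated 72 h at 37 °C. Relative L1 activity = Firefly/Renilla ×10,000; IC50 from logistic non-linear regression.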

[2] = test system: cancer cell lines; experiment: Cancer cell proliferation activity of representative nucleosides, CellTiterGlo 72 h (Example 7, Tables 8 and 9); assay type: cell-based; conditions: 72 h
Procedure, shortened: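 Cancer cell lines seeded and incubated at 37° C overnight, then exposed to nucleosides (final DMSO 0.1%) for 72 h at 37° C with 5% or 10% CO2. Viability read by CellTiterGlo luminescence and normalized to 0.1% DMSO (100%) and 10 μM staurosporine (0%) controls.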

IC50 [1]: 3.6 nM
IC50 ([2]; 72 h, 5637, bladder): 3.52 µM
IC50 ([2]; CLS439, bladder): > 50 µM
IC50 ([2]; HS729, muscle): 3.42 µM
IC50 ([2]; J82, bladder): > 50 µM
IC50 ([2]; JAR, placenta): > 50 µM
IC50 ([2]; MT3, breast): 1.62 µM
IC50 ([2]; PC3, prostate): 3.02 µM
IC50 ([2]; RD, muscle): 3.39 µM
IC50 ([2]; T24, bladder): > 50 µM
IC50 ([2]; Homo sapiens, 22Rv1, 72 h, 22RV1, prostate): > 50 µM
IC50 ([2]; Homo sapiens, 786-0, 72 h, 786O, kidney): > 50 µM
IC50 ([2]; Homo sapiens, A204, 72 h, A204, muscle): 1.58 µM
IC50 ([2]; Homo sapiens, A549, 72 h, A549, lung): 3.25 µM
IC50 ([2]; Homo sapiens, A673, 72 h, A673, bone): > 50 µM
IC50 ([2]; Homo sapiens, A2780, 72 h, A2780, ovary): > 50 µM
IC50 ([2]; Homo sapiens, A-375, 72 h, A375, skin): 2.34 µM
IC50 ([2]; Homo sapiens, A-431, 72 h, A431, skin): > 50 µM
IC50 ([2]; Homo sapiens, ACHN, kidney): 5.89 µM
IC50 ([2]; Homo sapiens, ASPC1, 72 h, ASPC1, pancreas): 5.31 µM
IC50 ([2]; Homo sapiens, BT-20, 72 h, BT20, breast): > 50 µM
IC50 ([2]; Homo sapiens, BXPC-3, 72 h, BXPC3, pancreas): 3.54 µM
IC50 ([2]; Homo sapiens, C-33-A, C33A, endometrial): 3.7 µM
IC50 ([2]; Homo sapiens, CAKI-1, 72 h, CAKI1, kidney): 5.33 µM
IC50 ([2]; Homo sapiens, COLO 205, 72 h, COLO205, colon): 1.8 µM
IC50 ([2]; Homo sapiens, COLO-678, 72 h, COLO678, colon): > 50 µM
IC50 ([2]; Homo sapiens, Ca-Ski, CASKI, endometrial): > 50 µM
IC50 ([2]; Homo sapiens, Caco-2, 72 h, CACO2, colon): > 50 µM
IC50 ([2]; Homo sapiens, Calu-6, 72 h, CALU6, lung): 6.13 µM
IC50 ([2]; Homo sapiens, DLD-1, 72 h, DLD1, colon): > 50 µM
IC50 ([2]; Homo sapiens, DU-145, 72 h, DU145, prostate): 6.33 µM
IC50 ([2]; Homo sapiens, EFO-21, 72 h, EFO21, ovary): > 50 µM
IC50 ([2]; Homo sapiens, EJ-28, 72 h, EJ28, bladder): > 50 µM
IC50 ([2]; Homo sapiens, Granta-519, 72 h, GRANTA-519, hematological): 0.89 µM
IC50 ([2]; Homo sapiens, HCT-15, 72 h, HCT15, colon): > 50 µM
IC50 ([2]; Homo sapiens, HCT-116, 72 h, HCT116, colon): 3.2 µM
IC50 ([2]; Homo sapiens, HEK293, 72 h, HEK293, kidney): 6.09 µM
IC50 ([2]; Homo sapiens, HL-60, 72 h, HL-60, hematological): 3.46 µM
IC50 ([2]; Homo sapiens, HT-29, 72 h, HT29, colon): > 50 µM
IC50 ([2]; Homo sapiens, HT-1080, 72 h, HT1080, connective tissue): 3.72 µM
IC50 ([2]; Homo sapiens, HeLa, endometrial): 3.1 µM
IC50 ([2]; Homo sapiens, HepG2, 72 h, HEPG2, liver): > 50 µM
IC50 ([2]; Homo sapiens, Hs-578T, HS578T, breast): > 50 µM
IC50 ([2]; Homo sapiens, IGROV-1, 72 h, IGROV1, ovary): > 50 µM
IC50 ([2]; Homo sapiens, IMR-90, 72 h, IMR90, lung): 3.47 µM
IC50 ([2]; Homo sapiens, JEG-3, 72 h, JEG3, placenta): > 50 µM
IC50 ([2]; Homo sapiens, JIMT-1, 72 h, JIMT1, breast): 5.55 µM
IC50 ([2]; Homo sapiens, K562, 72 h, K-562, hematological): > 50 µM
IC50 ([2]; Homo sapiens, Kasumi 1, 72 h, KASUMI-1, hematological): 0.18 µM
IC50 ([2]; Homo sapiens, L-363, 72 h, L-363, hematological): 3.29 µM
IC50 ([2]; Homo sapiens, LoVo, colon): > 50 µM
IC50 ([2]; Homo sapiens, MCF7, 72 h, MCF7, breast): 5.68 µM
IC50 ([2]; Homo sapiens, MDA-MB-231, 72 h, MDAMB231, breast): 2.85 µM
IC50 ([2]; Homo sapiens, MDA-MB-435, 72 h, MDAMB435, skin): > 50 µM
IC50 ([2]; Homo sapiens, MDA-MB-436, 72 h, MDAMB436, breast): 5.23 µM
IC50 ([2]; Homo sapiens, MDA-MB-468, 72 h, MDAMB468, breast): > 50 µM
IC50 ([2]; Homo sapiens, MG-63, 72 h, MG63, bone): 4.11 µM
IC50 ([2]; Homo sapiens, MHH-ES-1, 72 h, MHHES1, bone): 3.92 µM
IC50 ([2]; Homo sapiens, MIA PaCa-2, 72 h, MIAPACA2, pancreas): > 50 µM
IC50 ([2]; Homo sapiens, MINO, hematological): 1.51 µM
IC50 ([2]; Homo sapiens, MV4-11, 72 h, MV4-11, hematological): 2.25 µM
IC50 ([2]; Homo sapiens, NCI-H23, 72 h, NCI-H23, lung): 1.68 µM
IC50 ([2]; Homo sapiens, NCI-H82, 72 h, NCIH82, lung): > 50 µM
IC50 ([2]; Homo sapiens, NCI-H292, 72 h, NCIH292, lung): 5.22 µM
IC50 ([2]; Homo sapiens, NCI-H460, 72 h, NCIH460, ung): > 50 µM
IC50 ([2]; Homo sapiens, OVCAR-3, 72 h, OVCAR3, ovary): 1.82 µM
IC50 ([2]; Homo sapiens, OVCAR-4, 72 h, OVCAR4, ovary): 3.27 µM
IC50 ([2]; Homo sapiens, PANC-1, 72 h, PANC1, pancreas): > 50 µM
IC50 ([2]; Homo sapiens, PLC-PRF-5, 72 h, PLCPRF5, liver): > 50 µM
IC50 ([2]; Homo sapiens, Panc1005, 72 h, PANC1005, pancreas): 6.31 µM
IC50 ([2]; Homo sapiens, Ramos, hematological): 1.85 µM
IC50 ([2]; Homo sapiens, SAOS-2, 72 h, SAOS2, bone): 1.73 µM
IC50 ([2]; Homo sapiens, SF-268, 72 h, SF268, brain): > 50 µM
IC50 ([2]; Homo sapiens, SF-295, 72 h, SF295, brain): > 50 µM
IC50 ([2]; Homo sapiens, SK-BR-3, 72 h, SKBR3, breast): 3.13 µM
IC50 ([2]; Homo sapiens, SK-HEP1, 72 h, SKHEP1, liver): 4.99 µM
IC50 ([2]; Homo sapiens, SK-LMS-1, 72 h, SKLMS1, uterus): > 50 µM
IC50 ([2]; Homo sapiens, SK-MEL-5, 72 h, SKMEL5, skin): > 50 µM
IC50 ([2]; Homo sapiens, SK-MEL-28, 72 h, SKMEL28, skin): 3.1 µM
IC50 ([2]; Homo sapiens, SK-N-AS, SKNAS, brain): 0.75 µM
IC50 ([2]; Homo sapiens, SK-N-SH, SKNSH, brain): 0.6 µM
IC50 ([2]; Homo sapiens, SK-OV-3, 72 h, SKOV3, ovary): 2.37 µM
IC50 ([2]; Homo sapiens, SNB-75, 72 h, SNB75, brain): > 50 µM
IC50 ([2]; Homo sapiens, SU-DHL10, 72 h, SU-DHL-10, hematological): 4.83 µM
IC50 ([2]; Homo sapiens, SU-DHL-6, 72 h, SU-DHL-6, hematological): 6.01 µM
IC50 ([2]; Homo sapiens, SW-620, 72 h, SW620, colon): > 50 µM
IC50 ([2]; Homo sapiens, TE-671, 72 h, TE671, muscle): 3.05 µM
IC50 ([2]; Homo sapiens, THP-1, 72 h, THP-1, hematological): 3.23 µM
IC50 ([2]; Homo sapiens, U2OS, bone): > 50 µM
IC50 ([2]; Homo sapiens, U-87 MG, U87MG, brain): 5.24 µM
IC50 ([2]; Homo sapiens, UMUC3, 72 h, UMUC3, bladder): > 50 µM
IC50 ([2]; Homo sapiens, UO-31, 72 h, UO31, kidney): > 50 µM
IC50 ([2]; Homo sapiens, WSU-NHL, hematological): 2.55 µM
IC50 ([2]; NCI-H358M, NCIH358M, lung): 1.63 µM
IC50 ([2]; PBMC, hematological): > 50 µM
IC50 ([2]; RD-ES, RDES, bone): > 50 µM
SMILES: CC[C@]1(CO)O[C@@H](n2cnc3c(N)nc(N)nc32)C[C@@H]1O [compound 25]
